# System: Vero
# Assay: Cytotoxicity against african green monkey Vero cells after 24 hrs measured per 5x10^5 cells by neutral red uptake assay
# Assay type: cell-based
# Conditions: chlorocebus sabaeus
row,SMILES,Activity
1,CO[C@H]1[C@H](O[C@H]2CC[C@@]3(C)[C@H]([C@H]2O)[C@H](O)C[C@]2(O)[C@@H]3CC[C@]3(C)[C@@H]([C@H](C)CC[C@H](O)C(C)C)C[C@@H](O)[C@H]32)OC[C@@H](O)[C@@H]1O [MONILOSIDE D],3 µg
2,CO[C@@H]1[C@@H](O)[C@H](O[C@@H]2CO[C@@H](O[C@@H]3CO[C@@H](OCC[C@@H](/C=C/[C@@H](C)[C@H]4[C@@H](O)[C@@H](O)[C@@H]5[C@]4(C)CC[C@@H]4[C@@]6(C)CC[C@H](O)[C@H](O)[C@@H]6[C@@H](O)C[C@]45O)C(C)C)[C@H](O)[C@H]3O)[C@H](O)[C@H]2OC)OC[C@H]1O,10 µg
3,CO[C@H]1[C@H](O[C@H]2CC[C@]3(C)C4=CC[C@]5(C)[C@@H]([C@H](C)CC[C@H](O)C(C)C)C[C@@H](O)[C@H]5C4=CC[C@H]3C2)OC[C@@H](O)[C@@H]1O [MONILOSIDE A],3 µg
4,CO[C@@H]1[C@@H](O)[C@H](O[C@@H]2CO[C@@H](O[C@@H]3CO[C@@H](OCC[C@@H](CC[C@@H](C)[C@H]4[C@@H](O)[C@@H](O)[C@@H]5[C@]4(C)CC[C@@H]4[C@@]6(C)CC[C@H](O)[C@H](O)[C@@H]6[C@@H](O)C[C@]45O)C(C)C)[C@H](O)[C@H]3O)[C@H](O)[C@H]2O)OC[C@H]1O [MONILOSIDE I],1 µg
5,CO[C@@H]1[C@@H](O)[C@H](OCC[C@@H](CC[C@@H](C)[C@H]2[C@@H](O)[C@@H](O)[C@@H]3[C@]2(C)CC[C@@H]2[C@@]4(C)CC[C@H](O)[C@H](O)[C@@H]4[C@@H](O)C[C@]23O)C(C)C)OC[C@H]1O[C@@H]1OC[C@H](O)[C@H](O)[C@H]1O [MONILOSIDE E],10 µg
6,CO[C@H]1[C@H](O[C@H]2CC[C@]3(C)C4=CC[C@]5(C)[C@@H]([C@H](C)CC[C@H](O)C(C)C)C[C@@H](O)[C@H]5C4=CC[C@H]3[C@H]2O)OC[C@@H](O)[C@@H]1O [MONILOSIDE B],3 µg
7,CO[C@H]1[C@H](O[C@H]2CC[C@@]3(C)[C@H]([C@H]2O)[C@H](O)C[C@H]2[C@@H]4[C@H](O)C[C@H]([C@H](C)CC[C@H](O)C(C)C)[C@@]4(C)CC[C@@H]23)OC[C@@H](O)[C@@H]1O [MONILOSIDE C],3 µg
8,CO[C@@H]1[C@@H](O)[C@H](O[C@@H]2CO[C@@H](O[C@@H]3CO[C@@H](OCC[C@@H](CC[C@@H](C)[C@H]4[C@@H](O)[C@@H](O)[C@@H]5[C@]4(C)CC[C@@H]4[C@@]6(C)CC[C@H](O)[C@H](O)[C@@H]6[C@@H](O)C[C@]45O)C(C)C)[C@H](O)[C@H]3O)[C@H](O)[C@H]2OC)OC[C@H]1O [MONILOSIDE G],10 µg
9,CO[C@@H]1[C@@H](O)[C@H](OCC[C@@H](/C=C/[C@@H](C)[C@H]2[C@@H](O)[C@@H](O)[C@@H]3[C@]2(C)CC[C@@H]2[C@@]4(C)CC[C@H](O)[C@H](O)[C@@H]4[C@@H](O)C[C@]23O)C(C)C)OC[C@H]1O[C@@H]1OC[C@H](O)[C@H](O)[C@H]1O [MONILOSIDE F],10 µg
